Results published in patent US20230279053A1 (priority 2020, published 2023).

How the values were obtained:
[1] = target: T1, Human GLP-1R (Homo sapiens, UniProt P43220); assay: Functional antagonism of human GLP1 receptors, cAMP accumulation assay; assay type: cell-based; settings: HEK cells infected with GLP-1R Bacmam; stimulated with EC80 of GLP-1(7-36) amide; HiRange cAMP kit; IC50 corrected by Cheng-Prusoff adaptation
T1 construct: expressed in transfected cells; host or cells: HEK cells, BacMam transduction
Method: The method followed a two-step protocol provided in the kit. In brief, HEK cells infected with 1% v/v GLP-1R Bacmam for 24 h were harvested using cell dissociation solution (Gibco), centrifuged and resuspended in the assay buffer (HBSS (Lonza) supplemented with 0.5 mM IBMX (Tocris)). DMSO stock of test compounds were serially diluted in the assay buffer and added to 96-well half area white plates (Costar). Final DMSO concentration in the assay was 0.3%. 20K cells per well were added to plates followed by 30 min incubation (humidified air (5% CO2), 37° C.). […] Intracellular accumulation of cAMP was stopped by addition of the HTRF detection reagents in lysis buffer, provided in the kit. Following 1-hour incubation at RT, plates were read on Pherastar FS (BMG Labtech, Inc.) Dotmatics Studies software was used for fitting data to a four-parameter concentration response curve. Calculated IC50 values were corrected for the agonist concentration using an adaptation of the Cheng-Prusoff equation to generate functional pKb values: […]

[2] = target: T2, Mouse GLP-1R (Mus musculus, UniProt O35659); assay: Functional antagonism of mouse GLP1 receptors, cAMP accumulation assay; assay type: cell-based; settings: CHO-K1 cells stably expressing mouse GLP-1R; stimulated with EC80 of Exendin-4; HitHunter cAMP assay; IC50 corrected by Cheng-Prusoff adaptation
T2 construct: expressed in transfected cells
T2 sequence (O35659 22-463): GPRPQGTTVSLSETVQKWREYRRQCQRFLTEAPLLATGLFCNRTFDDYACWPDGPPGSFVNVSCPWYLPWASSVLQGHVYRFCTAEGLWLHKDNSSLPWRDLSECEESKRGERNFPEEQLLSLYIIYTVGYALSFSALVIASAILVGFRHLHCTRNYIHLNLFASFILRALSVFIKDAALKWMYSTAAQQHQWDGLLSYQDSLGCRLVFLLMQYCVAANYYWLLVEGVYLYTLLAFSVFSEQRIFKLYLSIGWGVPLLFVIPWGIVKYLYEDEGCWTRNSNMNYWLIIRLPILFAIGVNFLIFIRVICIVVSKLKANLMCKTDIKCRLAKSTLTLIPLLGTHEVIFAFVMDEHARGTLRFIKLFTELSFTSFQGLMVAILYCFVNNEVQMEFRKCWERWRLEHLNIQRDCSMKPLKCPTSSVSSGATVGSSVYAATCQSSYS
Method: Antagonist inhibition of cAMP production upon stimulation of GLP-1R with agonist ligand was assessed using HitHunter cAMP assay (DiscoverX). The method followed antagonist procedure steps provided in the kit. In brief, CHO-K1 cells stably expressing mouse GLP-1R were thawed and plated at 10K cells per well in CP05 reagent in the total volume of 20 μl into white walled, 384-well plates and incubated overnight at 37° C. in Cytomat. On the day of the assay, the media was replaced with 15 μl of HBSS/10 mM HEPES. DMSO stock of test compounds were serially diluted in DMSO and then further diluted in the HBSS/10 mM HEPES, 5 μl of each concentration were added to the plate followed by 30 min incubation at 37° C. Final DMSO concentration in the assay was 1%. Cells were stimulated for further 30 min at 37° C. by addition of an equivalent to EC80 concentration of Exendin-4. Intracellular accumulation of cAMP was stopped by addition of the HitHunter detection reagents in lysis buffer, provided in the kit. Following 1-hour incubation at RT in the dark, plates were read on Envision (Perkin Elmer). Dotmatics Studies software was used for fitting data to a four-parameter concentration response curve. Calculated IC50 values were corrected for the agonist concentration using an adaptation of the Cheng-Prusoff equation to generate functional pKb values: […]

T1 sequence (P43220 24-463): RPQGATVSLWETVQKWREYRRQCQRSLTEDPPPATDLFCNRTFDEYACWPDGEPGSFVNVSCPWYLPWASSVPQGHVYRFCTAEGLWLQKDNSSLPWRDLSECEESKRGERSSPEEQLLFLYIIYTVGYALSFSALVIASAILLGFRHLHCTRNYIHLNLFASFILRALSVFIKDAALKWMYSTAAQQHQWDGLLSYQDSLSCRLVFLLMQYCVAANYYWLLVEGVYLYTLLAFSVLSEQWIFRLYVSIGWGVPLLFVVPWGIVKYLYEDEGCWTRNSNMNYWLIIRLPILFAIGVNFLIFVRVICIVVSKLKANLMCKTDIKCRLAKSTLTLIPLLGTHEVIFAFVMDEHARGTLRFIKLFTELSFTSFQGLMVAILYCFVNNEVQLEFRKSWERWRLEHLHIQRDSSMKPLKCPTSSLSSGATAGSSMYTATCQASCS

exendin(9-39)amide [Ex 9-39]
Human GLP-1R antagonist cAMP fpKb [1]: 7.8
Mouse GLP-1R antagonist cAMP fpKb [2]: 7.2
